# Molecular target: T1, HDAC6 catalytic domain 2 (DD2) (Danio rerio, UniProt F8W4B7)
# T1 construct: cloning the residues 440–798 of the Danio rerio HDAC6 gene into a modified pET28a(+) vector; 6xHis (N, cleaved yes); made in house; host or cells: E. coli BL21(DE3)
# T1 sequence (F8W4B7 440-798): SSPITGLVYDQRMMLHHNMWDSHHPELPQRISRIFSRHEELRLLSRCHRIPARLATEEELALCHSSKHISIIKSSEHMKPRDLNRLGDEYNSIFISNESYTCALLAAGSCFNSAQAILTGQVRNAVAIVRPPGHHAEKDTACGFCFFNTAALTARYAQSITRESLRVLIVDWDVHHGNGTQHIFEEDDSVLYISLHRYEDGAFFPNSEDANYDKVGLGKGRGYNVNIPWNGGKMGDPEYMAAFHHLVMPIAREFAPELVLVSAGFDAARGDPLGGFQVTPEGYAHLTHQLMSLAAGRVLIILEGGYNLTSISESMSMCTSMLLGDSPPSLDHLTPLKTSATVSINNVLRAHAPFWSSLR
# Test: Enzyme-coupled acetate detection assay ('acetate assay') of HDAC6-catalyzed peptide deacetylation
# Type: biochemical
# Conditions: Michaelis–Menten fit ± standard error; for kcat/KM: 10–2000 μM monoacetylated substrate, 0.1–1 μM HDAC6 DD2, 50 mM HEPES pH 8.0, 137 mM NaCl, 2.7 mM KCl, 1 mM MgCl2, 30 °C, NADH fluorescence, lower limits where KM below detection limit
# Text: We used an enzyme-coupled acetate detection assay, or simply the ‘acetate assay’ (see “Methods”), developed and applied previously[12],[27], to measure the catalytic efficiency (kcat/KM) of HDAC6. We measured catalysis of deacetylation of acetylated peptides with sequences taken from known substrate proteins, as well as a set of selected peptides with reported acetylation sites that were available to us from previous studies (Table 1). […] To ensure an accurate determination of kcat/KM we measured HDAC6-catalyzed deacetylation at a minimum of four peptide concentrations, with at least two concentrations below KM (Fig. 1, squares). A total of 26 peptides which met these criteria formed our training set (D-TRAINING, Table 1). Additionally, we included 16 peptides where the value of kcat was measured accurately but the KM value was lower than the limit of detection for the acetate assay (~ 10–20 μM substrate, circles in Fig. 1) allowing only the determination of a lower limit for the value of kcat/KM (set D-CAPPED, see below and Table 1). The measured kcat/KM values span the range of three orders of magnitude.
# Figure 1 Dependence of deacetylation rate on substrate concentration for two representative peptides catalyzed by HDAC6, measured using the acetate assay. The initial velocity for each substrate concentration was determined from a linear regression of a time course consisting of a minimum of three timepoints, standard error is shown. The kinetic parameters are determined from a nonlinear least square fit of the Michaelis–Menten equation to the data and are listed in Table 1. Black squares: example of data which met the criteria to produce accurate kcat/KM values. Green circles: example of overfit data resulting in calculation of a lower limit for kcat/KM, due to the KM being lower than the detection limit of the assay.
# The coupled acetate detection assay or simply the ‘acetate assay’ was performed as previously described with a few modifications. Briefly, lyophilized peptides were re-suspended in water when possible or with minimal quantities of acid, base, or organic solvent to improve solubility. Peptide concentration was determined by one or more of the following methods: (1) measuring A280 using the extinction coefficients if the peptide contained a tryptophan or tyrosine, using the fluorescamine assay if the peptide contained a free lysine, (2) performing the bicinchoninic acid (BCA) assay using bovine serum albumin (BSA) as a standard, and (3) determining the concentration of acetate produced by complete deacetylation of the peptide by HDAC6.
# Reactions containing 10–2000 μM monoacetylated peptides in 1× HDAC6 assay buffer (50 mM HEPES, pH 8.0, 137 mM NaCl, 2.7 mM KCl, 1 mM MgCl2) were initiated with 0.1–1 μM HDAC6 at 30 °C. […]
substance,measurement,setting,value
"RKSTGG(K-ac)APRKQL [13-mer: RKSTGG(K-ac)APRKQL, H3 K14ac 13-mer peptide]",kcat/KM,,"140,000±10,000 M^−1 s^−1"
same,kcat/KM,listed as 13-mer peptide analog,140000 M⁻¹ s⁻¹
same,kcat,"HDAC6 DD2, pH 8.0, 30 °C",4.1 ± 0.3 s⁻¹
same,Km,"HDAC6 DD2, pH 8.0, 30 °C, detection limit ~10–20 μM substrate",28 ± 5 µM

# Source: PMC8810773, “Structure-based prediction of HDAC6 substrates validated by enzymatic assay reveals determinants of promiscuity and detects new potential substrates” (Scientific Reports, 2022)
